Experimental data: ChEMBL document CHEMBL1155809, “Design, synthesis, and antihepatocellular carcinoma activity of nitric oxide releasing derivatives of oleanolic acid” (J Med Chem, 2008)
The source made the active and inactive calls. The rule behind the calls is not given here.

Key:
MCF7 [1] = test: Cytotoxicity against human MCF7 cells assessed as cell death by lactate dehydrogenase release assay; assay type: functional, cell-based
HEK293 [2] = test: Cytotoxicity against HEK293 cells assessed as cell death by lactate dehydrogenase release assay; assay type: functional, cell-based; conditions: Homo sapiens
Hep 3B2 = test: Cytotoxicity against human Hep3B cells assessed as levels of nitric oxide production at 100 uM after 30 to 300 mins by colorimetric assay; assay type: functional, cell-based
HeLa [3] = test: Cytotoxicity against human HeLa cells assessed as levels of nitric oxide production at 100 uM after 30 to 300 mins by colorimetric assay; assay type: functional, cell-based
PC-3 [4] = test: Cytotoxicity against human PC3 cells assessed as levels of nitric oxide production at 100 uM after 30 to 300 mins by colorimetric assay; assay type: functional, cell-based
MCF7 [5] = test: Cytotoxicity against human MCF7 cells assessed as levels of nitric oxide production at 100 uM after 30 to 300 mins by colorimetric assay; assay type: functional, cell-based
HEK293 [6] = test: Cytotoxicity against human HEK293 cells assessed as levels of nitric oxide production at 100 uM after 30 to 300 mins by colorimetric assay; assay type: functional, cell-based
Mus musculus = test: Toxicity in BALB/c mouse at 15 to 100 mg/kg, ip daily for 3 days assessed after 15 days; assay type: organism-based; design: dose 15-100 mg/kg, route intraperitoneal; conditions: in vivo, 360 h
[7] = Antitumor activity against human Hep3B cells xenografted in non-obese diabetic SCID mouse assessed as reduction in tumor size at 15 mg/kg, ip after 35 days; assay type: functional, Hep 3B2; conditions: route intraperitoneal
[8] = Antitumor activity against human Hep3B cells xenografted in non-obese diabetic SCID mouse assessed as reduction in tumor weight at 15 mg/kg, ip after 35 days; assay type: functional, Hep 3B2; conditions: route intraperitoneal
HepG2 [9] = test: Cytotoxicity against human HepG2 cells assessed as levels of nitric oxide production at 100 uM after 30 to 300 mins by colorimetric assay; assay type: functional, cell-based
HepG2 [10] = test: Cytotoxicity against human HepG2 cells assessed as cell death at 1 uM after 24 hrs by lactate dehydrogenase release assay; assay type: functional
HepG2 [11] = test: Cytotoxicity against human HepG2 cells assessed as cell death at 0.1 uM after 24 hrs by lactate dehydrogenase release assay; assay type: functional
HepG2 [12] = test: Cytotoxicity against human HepG2 cells assessed as cell death at 0.01 uM after 24 hrs by lactate dehydrogenase release assay; assay type: functional
HepG2 [13] = test: Cytotoxicity against human HepG2 cells assessed as cell death at 0.001 uM after 24 hrs by lactate dehydrogenase release assay; assay type: functional
[14] = Cytotoxicity against human Hep3B cells assessed as cell death at 1 uM after 24 hrs by lactate dehydrogenase release assay; assay type: functional, Hep 3B2
[15] = Cytotoxicity against human Hep3B cells assessed as cell death at 0.1 uM after 24 hrs by lactate dehydrogenase release assay; assay type: functional, Hep 3B2
[16] = Cytotoxicity against human Hep3B cells assessed as cell death at 0.01 uM after 24 hrs by lactate dehydrogenase release assay; assay type: functional, Hep 3B2
[17] = Cytotoxicity against human Hep3B cells assessed as cell death at 0.001 uM after 24 hrs by lactate dehydrogenase release assay; assay type: functional, Hep 3B2
HeLa [18] = test: Cytotoxicity against human HeLa cells assessed as cell death by lactate dehydrogenase release assay; assay type: functional, cell-based
PC-3 [19] = test: Cytotoxicity against human PC3 cells assessed as cell death by lactate dehydrogenase release assay; assay type: functional, cell-based

SMILES	Activity (MCF7 [1])	Activity (HEK293 [2])	Activity (Hep 3B2)	Activity (HeLa [3])	Activity (PC-3 [4])	Activity (MCF7 [5])	Activity (HEK293 [6])	Activity (Mus musculus)	Activity [7]	Activity (HepG2 [9])	Activity (HepG2 [10])	Activity (HepG2 [11])	Activity (HepG2 [12])	Activity (HepG2 [13])	Activity [14]	Activity [15]	Activity [16]	Activity [17]	Activity (HeLa [18])	Activity (PC-3 [19])	other results
CC(CCOc1no[n+]([O-])c1S(=O)(=O)c1ccccc1)OC(=O)CCC(=O)O[C@H]1CC[C@]2(C)[C@H]3CC=C4[C@@H]5CC(C)(C)CC[C@]5(C(=O)O)CC[C@@]4(C)[C@]3(C)CC[C@H]2C1(C)C (stereo partly specified)	inactive	inactive	Active	inactive	inactive	inactive	inactive	Non-toxic	232 mm3	Active	100%	93.5%	13.34%	1.7%	100%	92.4%	14.23%	4.7%	inactive	inactive	Activity [8]: 0.262 g
CC(CCOc1no[n+]([O-])c1S(=O)(=O)c1ccccc1)OC(=O)[C@]12CCC(C)(C)C[C@H]1C1=CC[C@@H]3[C@@]4(C)CC[C@H](O)C(C)(C)[C@@H]4CC[C@@]3(C)[C@]1(C)CC2 (stereo partly specified)	inactive	inactive	Active	inactive	inactive	inactive	inactive	Non-toxic	289 mm3	Active	89.21%	55.11%	6.67%	0%	92.18%	63.51%	11.05%	0%	inactive	inactive	Activity [8]: 0.332 g
CC1(C)CC[C@]2(C(=O)O)CC[C@]3(C)C(=CC[C@@H]4[C@@]5(C)CC[C@H](O)C(C)(C)[C@@H]5CC[C@]43C)[C@@H]2C1 [OLEANOLIC_ACID]	inactive	inactive	Active	inactive	inactive	inactive	inactive	Non-toxic	668 mm3	Active	0%	0%	0%	0%	0%	0%	0%	0%	inactive	inactive	Activity [8]: 0.961 g
C[C@H](CCC(=O)O)[C@H]1CC[C@H]2[C@@H]3[C@@H](O)C[C@@H]4C[C@H](O)CC[C@]4(C)[C@H]3CC[C@]12C [URSODIOL]	inactive	inactive	Active	inactive	inactive	inactive	inactive			Active	0%	0%	0%	0%	0%	0%	0%	0%	inactive	inactive	
